Format in all cases: functional, cell-based
Experiment [1] deals with MGC-803. In words: Antiproliferative activity against human MGC-803 cells assessed as cell growth inhibition measured after 48 hrs by MTT assay. The note with it: MGC-803, 48 h.
Experiment [2] relates to SK-OV-3. Description: Antiproliferative activity against human SK-OV-3 cells assessed as cell growth inhibition measured after 48 hrs by MTT assay. The note with it: SK-OV-3, 48 h.
Experiment [3] deals with WI-38. In words: Antiproliferative activity against human WI-38 cells assessed as cell growth inhibition measured after 48 hrs by MTT assay. Conditions: WI-38, 48 h. On the technique in general: Tetrazolium dyes change colour on reduction, which living cells bring about.
In experiment [4] the test system is HepG2. Description: Antiproliferative activity against human HepG2 cells assessed as cell growth inhibition measured after 48 hrs by MTT assay. The note with it: HepG2, 48 h.
Experiment [5] concerns T-24. In words: Antiproliferative activity against human T24 cells assessed as cell growth inhibition measured after 48 hrs by MTT assay. Conditions: T-24, 48 h.
For experiment [6], the system named is T-24. In words: Induction of mitochondrial membrane potential dysfunction in human T24 cells assessed as mitochondrial fragment condensation at 0.5 to 1 uM by mito-tracker green dye based fluorescence microscopy. Conditions: dose 0.5-1 µM.

Activity calls are given as the source filed them. The rule behind the calls is not given here.

The IC50 is the concentration at which inhibition is half-maximal. In the case of `COc1ccc2c(c1)-c1cccc3ccnc(c13)C2=O`, the IC50 in experiment [1] was 16.6 µM; in experiment [2] it was 26.1 µM; in experiment [3], > 40 µM; in experiment [4] it was 19.6 µM; in experiment [5], 18.9 µM.

Turning to `O=C1c2cc(Cl)ccc2-c2cccc3ccnc1c23`, the IC50 in experiment [1] is 26.3 µM; in experiment [2], > 40 µM; in experiment [3] it was > 40 µM; in experiment [4] it was 15.3 µM; in experiment [5], 34.1 µM.

For the molecule `O=C1c2cc(O)ccc2-c2cccc3ccnc1c23`, the IC50 in experiment [1] was 21.5 µM; in experiment [2], 29.4 µM; in experiment [3], > 40 µM; in experiment [4], > 40 µM; in experiment [5], 28.9 µM.

In the case of `COc1ccc2c3c(nccc13)C(=O)c1cc(OCc3ccccc3)ccc1-2`, the IC50 in experiment [1] amounted to 16.7 µM; in experiment [2], 18.5 µM; in experiment [3], 38.6 µM; in experiment [4] it was 25.8 µM; in experiment [5], 19.1 µM.

With `O=c1[nH]cc(F)c(=O)[nH]1` [FLUOROURACIL], the half-inhibitory concentration (IC50) in experiment [1] was 39.1 µM; in experiment [2], 21.6 µM; in experiment [3], > 40 µM; in experiment [4], 20.4 µM; in experiment [5], 39.4 µM.

`O=C1c2ccc(F)cc2-c2cccc3ccnc1c23`: the IC50 in experiment [1] is 17.8 µM; in experiment [2], 27.4 µM; in experiment [3], 36.5 µM; in experiment [4] it was 27.4 µM; in experiment [5], 21.2 µM.

In the case of `COc1cc2c3c(nccc3c1OC)C(=O)c1cc(OCc3ccccc3)ccc1-2`, the IC50 in experiment [1] was 15.8 µM; in experiment [2], 22.1 µM; in experiment [3] it was 35.1 µM; in experiment [4], > 40 µM; in experiment [5], 7.3 µM.

Turning to `COc1ccc2c(c1)C(=O)c1nccc3cccc-2c13`, the IC50 in experiment [1] was 14.8 µM; in experiment [2], 19.4 µM; in experiment [3], 28.7 µM; in experiment [4] it was 7.3 µM; in experiment [5] it was 20.4 µM.

As for `COc1cc2c(cc1OC)-c1cccc3ccnc(c13)C2=O`, the IC50 was 10.9 µM in experiment [1]; > 40 µM in experiment [2]; 38.2 µM in experiment [3]; 35.9 µM in experiment [4]; 22.3 µM in experiment [5].

For `COc1cc2ccnc3c2c(c1OC)-c1ccccc1C3=O` [LYSICAMINE], the IC50 in experiment [1] is 15.8 µM; in experiment [2] it was 12.1 µM; in experiment [3], 6.7 µM; in experiment [4], > 40 µM; in experiment [5], 7.3 µM.

Take `COc1cc2c3c(nccc3c1OC)C(=O)c1ccccc1-2`: the 50% inhibitory concentration (IC50) stood at 9.2 µM in experiment [1]; 27.4 µM in experiment [2]; 29.7 µM in experiment [3]; 35 µM in experiment [4]; 18.3 µM in experiment [5]. Also, the result in experiment [6] was Active.

As for `COc1cc2c3c(nccc3c1OC)C(=O)c1cc(O)ccc1-2`, the 50% inhibitory concentration (IC50) in experiment [1] was 30.9 µM; in experiment [2] it was 38.4 µM; in experiment [3], > 40 µM; in experiment [4], 36.9 µM; in experiment [5], 26.2 µM.

On to `O=C1c2cc3c(cc2-c2cccc4ccnc1c24)OCO3`, for which the IC50 is 20.8 µM in experiment [1]; 38.1 µM in experiment [2]; > 40 µM in experiment [3]; > 40 µM in experiment [4]; 14.2 µM in experiment [5].

For the molecule `Cc1ccc2c(c1)-c1cccc3ccnc(c13)C2=O`, the half-maximal inhibitory concentration (IC50) amounted to 10.6 µM in experiment [1]; 16.7 µM in experiment [2]; 32.4 µM in experiment [3]; 30.1 µM in experiment [4]; 8.6 µM in experiment [5].

Regarding `COc1ccc2c3c(nccc13)C(=O)c1ccccc1-2`, the IC50 in experiment [1] came out at 7.3 µM; in experiment [2], 10.4 µM; in experiment [3] it was 20.4 µM; in experiment [4] it was 12.8 µM; in experiment [5] it was 6.5 µM.

Turning to `O=C1c2ccc(Cl)cc2-c2cccc3ccnc1c23`, the half-inhibitory concentration (IC50) in experiment [1] was 15.9 µM; in experiment [2], 27.2 µM; in experiment [3], > 40 µM; in experiment [4], > 40 µM; in experiment [5] it was 16.8 µM.

For the molecule `O=C1c2cc([N+](=O)[O-])ccc2-c2cccc3ccnc1c23`, the half-maximal inhibitory concentration (IC50) in experiment [1], in experiment [2], in experiment [3], in experiment [4] and in experiment [5] was > 40 µM throughout.

On to `Cc1ccc2c(c1)C(=O)c1nccc3cccc-2c13`, for which the concentration for half-maximal inhibition (IC50) in experiment [1] worked out at 10 µM; in experiment [2], 17 µM; in experiment [3], 28.4 µM; in experiment [4] it was 13.1 µM; in experiment [5], 12.4 µM.

Consider `COc1ccc2c3c(nccc13)C(=O)c1cc(O)ccc1-2`, for which the half-inhibitory concentration (IC50) in experiment [1] was > 40 µM; in experiment [2] it was 32.9 µM; in experiment [3] it was > 40 µM; in experiment [4], 34.1 µM; in experiment [5], 12.3 µM.

As for `O=C1c2cc(OCc3ccccc3)ccc2-c2cccc3ccnc1c23`, the half-maximal inhibitory concentration (IC50) in experiment [1], in experiment [2], in experiment [3], in experiment [4] and in experiment [5] was > 40 µM in each case.

Regarding `O=C1c2c(F)cccc2-c2cccc3ccnc1c23`, the concentration for half-maximal inhibition (IC50) is 16.2 µM in experiment [1]; 22.3 µM in experiment [2]; > 40 µM in experiment [3]; 30.3 µM in experiment [4]; 15.2 µM in experiment [5]. Moreover, the result in experiment [6] was Active.

Values taken from ChEMBL document CHEMBL5131473, “One-pot synthesis of oxoaporphines as potent antitumor agents and investigation of their mechanisms of actions” (Eur J Med Chem, 2022).
